The values below come from ChEMBL document CHEMBL3046894, “Synthesis and Herbicidal Activity of Pyrimidinyl Salicylic and Thiosalicylic Acids” (J Pestic Sci, 1996).

For data set [1], the system named is Ipomoea lacunosa. Description: Pre-emergence herbicidal activity against Ipomoea lacunosa assessed as mortality at 1.6 g a.i/10 a. Format: functional.
Data set [2] deals with Echinochloa crus-galli. Description: Pre-emergence herbicidal activity against Echinochloa crus-galli (barnyard grass) assessed as mortality at 6.3 g a.i/10 a. Format: functional.
Data set [3] concerns Abutilon theophrasti. Description: Post-emergence herbicidal activity against Abutilon theophrasti (velvetleaf) assessed as mortality at 6.3 g a.i/10 a applied 11 days after germination as foliar spray. As to conditions: 264 h. Format: functional.
Data set [4] deals with Ipomoea lacunosa. Description: Pre-emergence herbicidal activity against Ipomoea lacunosa assessed as mortality at 6.3 g a.i/10 a. Format: functional.
The subject of data set [5] is Zea mays. Description: (§1) Pre-emergence phytotoxicity against Zea mays (maize) assessed as mortality at 1.6 g a.i/10 a. The data set is classed as organism-based. Particulars: in vivo, other.
The test system of data set [6] is Abutilon theophrasti. Description: Post-emergence herbicidal activity against Abutilon theophrasti (velvetleaf) assessed as mortality at 1.6 g a.i/10 a applied 11 days after germination as foliar spray. As to conditions: 264 h. Format: functional.
Data set [7] can be described thus: Pre-emergence phytotoxicity against Gossypium hirsutum (cotton) assessed as mortality at 6.3 g a.i/10 a. Format: organism-based. Particulars: in vivo, 6.3 g a.i/10 a, read-out: Activity.
Data set [8] has as its system Zea mays. Description: Pre-emergence phytotoxicity against Zea mays (maize) assessed as mortality at 6.3 g a.i/10 a. Format: organism-based. Particulars: in vivo, other.
For data set [9], the system named is Glycine max. Description: Post-emergence phytotoxicity against Glycine max (soybean) assessed as mortality at 1.6 g a.i/10 a applied 11 days after germination as foliar spray. The data set is classed as organism-based. As to conditions: in vivo, other, 264 h.
Data set [10] has as its system Glycine max. Description: Post-emergence phytotoxicity against Glycine max (soybean) assessed as mortality at 6.3 g a.i/10 a applied 11 days after germination as foliar spray. Particulars: in vivo, other, 264 h. Format: organism-based.
Data set [11] concerns Abutilon theophrasti. Description: Pre-emergence herbicidal activity against Abutilon theophrasti (velvetleaf) assessed as mortality at 6.3 g a.i/10 a. The data set is classed as functional.
Data set [12] has as its system Gossypium hirsutum. Description: Pre-emergence phytotoxicity against Gossypium hirsutum (cotton) assessed as mortality at 1.6 g a.i/10 a. As to conditions: in vivo, other. The data set is classed as organism-based.
Data set [13] deals with Gossypium hirsutum. Description: Post-emergence phytotoxicity against Gossypium hirsutum (cotton) assessed as mortality at 1.6 g a.i/10 a applied 11 days after germination as foliar spray. Format: organism-based. As to conditions: in vivo, other, 264 h.
Data set [14] relates to Abutilon theophrasti. Description: Pre-emergence herbicidal activity against Abutilon theophrasti (velvetleaf) assessed as mortality at 1.6 g a.i/10 a. Format: functional.
Data set [15] relates to Zea mays. Description: Post-emergence phytotoxicity against Zea mays (maize) assessed as mortality at 1.6 g a.i/10 a applied 11 days after germination as foliar spray. Format: organism-based. Particulars: in vivo, other, 264 h.
The subject of data set [16] is Gossypium hirsutum. Description: Post-emergence phytotoxicity against Gossypium hirsutum (cotton) assessed as mortality at 6.3 g a.i/10 a applied 11 days after germination as foliar spray. Format: organism-based. As to conditions: in vivo, other, 264 h.
Data set [17] can be described thus: (§2) Pre-emergence phytotoxicity against Glycine max (soybean) assessed as mortality at 6.3 g a.i/10 a. Format: organism-based. Particulars: in vivo, 6.3 g a.i/10 a, read-out: Activity.
Data set [18] concerns Echinochloa crus-galli. Description: Post-emergence herbicidal activity against Echinochloa crus-galli (barnyard grass) assessed as mortality at 1.6 g a.i/10 a applied 11 days after germination as foliar spray. The data set is classed as functional. As to conditions: 264 h.
Data set [19] can be described thus: Pre-emergence phytotoxicity against Glycine max (soybean) assessed as mortality at 1.6 g a.i/10 a. Format: organism-based. As to conditions: in vivo, 1.6 g a.i/10 a, read-out: Activity.
Data set [20] deals with Ipomoea lacunosa. Description: Post-emergence herbicidal activity against Ipomoea lacunosa assessed as mortality at 1.6 g a.i/10 a applied 11 days after germination as foliar spray. Format: functional. Particulars: 264 h.
Data set [21] relates to Ipomoea lacunosa. Description: Pre-emergence herbicidal activity against Ipomoea lacunosa assessed as mortality per 10 acre. The data set is classed as functional.
Data set [22] has as its system Xanthium strumarium. Description: Pre-emergence herbicidal activity against Xanthium strumarium (cocklebur) assessed as mortality per 10 acre. The data set is classed as functional.
The test system of data set [23] is Echinochloa crus-galli. Description: Pre-emergence herbicidal activity against Echinochloa crus-galli (barnyard grass) assessed as mortality per 10 acre. The data set is classed as functional.
Data set [24] relates to Gossypium hirsutum. Description: Post-emergence phytotoxicity against Gossypium hirsutum (cotton) assessed as mortality per 10 acre. The data set is classed as organism-based. Particulars: in vivo.
Data set [25] has as its system Xanthium strumarium. Description: Pre-emergence herbicidal activity against Xanthium strumarium (cocklebur) assessed as mortality at 6.3 g a.i/10 a. The data set is classed as functional.
For data set [26], the system named is Persicaria nodosa. Description: Pre-emergence herbicidal activity against Persicaria nodosa assessed as mortality per 10 acre. The data set is classed as functional.
In data set [27] the test system is Xanthium strumarium. Description: Pre-emergence herbicidal activity against Xanthium strumarium (cocklebur) assessed as mortality at 1.6 g a.i/10 a. The data set is classed as functional.
Data set [28] relates to Xanthium strumarium. Description: Post-emergence herbicidal activity against Xanthium strumarium (cocklebur) assessed as mortality per 10 acre. The data set is classed as functional.
Data set [29] concerns Ipomoea lacunosa. Description: Post-emergence herbicidal activity against Ipomoea lacunosa assessed as mortality per 10 acre. The data set is classed as functional.
The test system of data set [30] is Persicaria nodosa. Description: Post-emergence herbicidal activity against Persicaria nodosa assessed as mortality per 10 acre. Format: functional.
Data set [31] relates to Zea mays. Description: Post-emergence phytotoxicity against Zea mays (maize) assessed as mortality at 6.3 g a.i/10 a applied 11 days after germination as foliar spray. The data set is classed as organism-based. Particulars: in vivo, other, 264 h.
The subject of data set [32] is Amaranthus retroflexus. Description: Post-emergence herbicidal activity against Amaranthus retroflexus assessed as mortality per 10 acre. The data set is classed as functional.
Data set [33] concerns Amaranthus retroflexus. Description: Pre-emergence herbicidal activity against Amaranthus retroflexus assessed as mortality per 10 acre. The data set is classed as functional.
Data set [34] has as its system Ipomoea lacunosa. Description: Post-emergence herbicidal activity against Ipomoea lacunosa assessed as mortality at 6.3 g a.i/10 a applied 11 days after germination as foliar spray. Particulars: 264 h. Format: functional.
Data set [35] relates to Echinochloa crus-galli. Description: Post-emergence herbicidal activity against Echinochloa crus-galli (barnyard grass) assessed as mortality per 10 acre. Format: functional.
Data set [36] concerns Gossypium hirsutum. Description: Pre-emergence phytotoxicity against Gossypium hirsutum (cotton) assessed as mortality per 10 acre. The data set is classed as organism-based. Particulars: in vivo.
The subject of data set [37] is Glycine max. The description is as §2. Format: organism-based. Particulars: in vivo, other.
Data set [38] is described as follows: as §1. The data set is classed as organism-based. Particulars: in vivo, 1.6 g a.i/10 a, read-out: Activity.
Data set [39] relates to Echinochloa crus-galli. Description: Post-emergence herbicidal activity against Echinochloa crus-galli (barnyard grass) assessed as mortality at 6.3 g a.i/10 a applied 11 days after germination as foliar spray. The data set is classed as functional. As to conditions: 264 h.

Each structure is given as a SMILES string. Calls of active or inactive are those of the source. No cut-off for these calls is given here.

Regarding `CCOc1cccc(Sc2nc(OC)cc(OC)n2)c1C(=O)O`, the Activity was less than 50% in [1]; greater than 90% in [2]; less than 50% in data set [4]; “Non-toxic” in data set [5]; “Toxic” in data set [8]; “Toxic” in data set [9]. Also, the Activity entry in data set [10] was “Toxic”; in data set [11], less than 50%; in [12] it was less than 50%; in data set [13] it was “Toxic”; in data set [14] it was less than 50%; in data set [15], “Toxic”. For the same molecule, the Activity result in [16] is listed as “Toxic”. For the same molecule, the mortality at 63 g/ha in data set [3] was greater than 90%. In addition, the mortality at 16 g/ha in data set [6] was greater than 90%; in data set [18], less than 5%. Besides, the mortality in data set [7], in [17] and in [19] was less than 50% in each case.

In the case of `COc1cc(OC)nc(Sc2cccc(C)c2C(=O)O)n1`, the mortality at 16 g/ha in data set [20] and in data set [18] was less than 5% throughout. The Activity in data set [1] is less than 50%; in data set [4], less than 50%; in [5], “Toxic”; in [25], less than 50%; in data set [8] it was “Toxic”; in data set [27], less than 50%. The Activity result was “Toxic” in data set [9]; “Toxic” in data set [31]; “Toxic” in data set [10]; less than 50% in data set [12]; “Non-toxic” in data set [13]; “Toxic” in [15]. Besides, the Activity result in [16] and in data set [37] was “Non-toxic” in each case. Further, the ED90 is on record as 50 gAi in data set [21]; 25 gAi in data set [22]; 100 gAi in data set [23]; 25 gAi in data set [28]; 50 gAi in [29]; 100 gAi in data set [35]. For the same molecule, the mortality in data set [7] and in data set [19] was less than 50% throughout. For the same molecule, the ED20 in data set [24] and in data set [36] was 100 gAi throughout. For the same molecule, the ED90 entry in [26], in data set [30], in data set [32] and in data set [33] was “Active” each time. The mortality at 63 g/ha in data set [34] was less than 5%.

With `CCSc1cccc(Sc2nc(OC)cc(OC)n2)c1C(=O)O`, the Activity is listed as less than 50% in [1]; less than 50% in data set [25]; “Non-toxic” in [8]; less than 50% in [27]; “Toxic” in data set [9]; “Toxic” in data set [31]. The Activity result was “Toxic” in [10]; less than 50% in data set [12]; “Non-toxic” in data set [13]; less than 50% in data set [14]; “Toxic” in data set [15]; “Non-toxic” in data set [16]. Further, the figures for the mortality at 63 g/ha in [3] and in [39] were greater than 90% and less than 5%, respectively. Besides, the mortality in [38], in data set [7], in [17] and in data set [19] was less than 50% each time. The mortality at 16 g/ha in data set [18] is less than 5%.
